The experiment addresses T1, Prostaglandin F (FP) Receptor (Homo sapiens, UniProt P43088).
T1 construct: host or cells: Ca2+ optimized hematopoietic cell lines (rat)
The experiment is described as follows: Ca2+ assay (FLIPR) for the GPCR prostaglandin F (FP) receptor, agonist and antagonist mode. In kind it is cell-based. The procedure:
Biological and Pharmacological Methods 1. Ca^2+ Assays for the GPCRs Motilin Receptor, Prostaglandin F (FP) Receptor, 5-hydroxytryptamine 2B (5-HT2B) Receptor, and Purinoreceptor P2Y1
Assays were performed using on a FLIPR^TETRA fluorometric imaging plate reader (Molecular Devices) with ScreenWorks Version 2 (Molecular Devices) as device operating and data analysis software.
Dose dependent agonist and antagonist activities were determined. Percentage activation and percentage inhibition values were determined.
Percentage activation was determined upon initial addition of the sample compounds followed by 10 minutes incubation at 25° C. Following compound incubation, reference agonists were added at EC80 to determine percentage inhibition.
Reference agonists were purchased from reputable commercial vendors and prepared according to each ligand's specifications. All handling of ligands were done to ensure proper control throughout the experiments.
Example compounds were weighed on a Microbalance (Mettler MX5) and dissolved in 100% DMSO to a final concentration of 2.5 mM and subsequently diluted into the assay buffer.
The Assay buffer was a supplemented HBSS (Hank's Balanced Salt Solution). HBSS was supplemented with 20 mM HEPES (4-(2-hydroxyethyl)-piperazin-1-ethansulfonic acid) and 2.5 mM Probenecid (Sigma P8761).
GPCR assays were performed using Ca^2+ optimized hematopoietic cell lines (rat) with cultures never exceeding 90% confluency. Cells were harvested and seeded (from cultures at less than 90% confluency) at 50000 cells/well for a 96-well plate (12500 cells/well for 384). After seeding, the assay plates were incubated for forty-five (45) minutes at room temperature. After room temperature incubation, the assay plates were incubated at 37° C. 5% CO2 for 24 hours prior to assaying.
All GPCR assays were performed using Fluo-8 Ca^2+ dye. Ca^2+ dye was prepared at 1× dye concentration in GPCR assay buffer. After 24 hours of incubation, cells were washed with GPCR assay buffer, and then Ca^2+-dye (100 μL/well) was added.
The plates were incubated for 90 minutes at 30° C. 5% CO2 prior to FLIPR assay.
Compound plates were prepared to add 50 μL/well during the agonist assay mode. During the FLIPR assay, 50 μL/well from the compound plate was diluted 3-fold into the existing 100 μL/well from the dye loading step. Therefore all compounds were prepared as 3× the final concentration desired in the assay.
After completion of the first single addition assay run, assay plate was removed from the FLIPR Tetra and placed at 25° C. for seven (7) minutes before antagonist assay.
Using the EC80 values determined during the agonist assay, all pre-incubated sample compound and reference antagonist (if applicable) wells were stimulated at the EC80 of the reference agonist. As reference ligands for the first three assays their obvious natural ligands motilin, prostaglandin F2α, and serotonin (5-HT, 5-Hydroxytryptamine) were used; and for the P2Y1 assay 2MeSATP (2-methyl-thio-adeno-sine 5′-triphosphate, i.e. (2R,3S,4R)-5-(6-amino-2-methylsulfanyl-purin-9-yl)-3,4-dihydroxy-tetrahydrofuran-2-yl]methyl (hydroxy-phosphonooxy-phosphoryl)hydrogen phosphate) was applied.
After the addition of the reference agonist fluorescence was monitored for 180 sec using FLIPR Tetra.
Data Analysis and Results:
From the FLIPR data, with negative control correction enabled, the maximum statistic for each well was exported and percentage activation relative to Emax control was calculated.

T1 sequence (P43088 whole entry): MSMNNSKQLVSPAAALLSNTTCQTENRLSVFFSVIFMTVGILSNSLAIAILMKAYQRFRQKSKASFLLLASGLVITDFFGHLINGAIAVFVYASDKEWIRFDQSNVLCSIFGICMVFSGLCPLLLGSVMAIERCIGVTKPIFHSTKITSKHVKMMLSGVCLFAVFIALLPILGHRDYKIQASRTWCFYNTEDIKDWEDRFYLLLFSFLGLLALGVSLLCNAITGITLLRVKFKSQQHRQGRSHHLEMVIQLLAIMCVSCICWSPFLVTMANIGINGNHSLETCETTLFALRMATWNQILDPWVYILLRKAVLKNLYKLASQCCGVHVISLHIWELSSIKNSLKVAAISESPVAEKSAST

As usually defined, the IC50 is the point on the concentration scale where inhibition reaches its midpoint. Higher therefore signals a need for much substance. Broadly, the inhibition is the percentage by which the read-out fell short of the control. A higher inhibition goes with strong suppression. For the compound `CN1CCC[C@H](NC(=O)Cc2ccc3ccccc3c2)C(=O)N2C[C@@H](NC(=O)Nc3cccc(N(C)C)c3)C[C@H]2COc2cccc(c2)C1=O` [Ex. 508, N-[(4S,6S,10S)-6-({[3-(dimethylamino)anilino]carbonyl}amino)-14-methyl-9,15-dioxo-2-oxa-8,14-diazatricyclo[14.3.1.0^4,8]icosa-1(20),16,18-trien-10-yl]-2-(2-naphthyl)acetamide], the IC50 is 430 nM and 10 µM produced 93% inhibition.
`CCCCCCCCCC(=O)N[C@H]1CCCN(C)C(=O)c2cccc(c2)OC[C@@H]2C[C@H](NC(=O)CCc3ccccc3)CN2C1=O` [Ex. 509, N-[(4S,6S,10S)-14-methyl-9,15-dioxo-6-[(3-phenylpropanoyl)amino]-2-oxa-8,14-diazatricyclo[14.3.1.0^4,8]icosa-1(20),16,18-trien-10-yl]decanamide] displayed an IC50 of 2100 nM and an inhibition at 10 µM of 54%.
In turn, `CCCCCCCCCC(=O)N[C@H]1CCCN(C)C(=O)c2cccc(c2)OC[C@@H]2C[C@H](NC(=O)c3cccc(N4CCOCC4)c3)CN2C1=O` [Ex. 510, N-[(4S,6S,10S)-14-methyl-6-[(3-morpholinobenzoyl)amino]-9,15-dioxo-2-oxa-8,14-diazatricyclo[14.3.1.0^4,8]icosa-1(20),16,18-trien-10-yl]decanamide] returned an IC50 of 1500 nM and an inhibition at 10 µM of 42%.
For the compound `COc1cccc(NC(=O)N[C@H]2C[C@H]3COc4cccc(c4)C(=O)N(C)CCC[C@H](NC(=O)Cc4ccc5ccccc5c4)C(=O)N3C2)c1` [Ex. 513, N-[(4S,6S,10S)-6-{[(3-methoxyanilino)carbonyl]amino}-14-methyl-9,15-dioxo-2-oxa-8,14-diazatricyclo[14.3.1.0^4,8]icosa-1(20),16,18-trien-10-yl]-2-(2-naphthyl)acetamide], the IC50 is 650 nM and 10 µM produced 95% inhibition.
Compound `CCCCCCCCCC(=O)N[C@H]1CCCN(C)C(=O)c2cccc(c2)OC[C@@H]2C[C@H](NC(=O)Cc3cccc(Oc4ccccc4)c3)CN2C1=O` [Ex. 515, N-[(4S,6S,10S)-14-methyl-9,15-dioxo-6-{[2-(3-phenoxyphenyl)acetyl]amino}-2-oxa-8,14-diazatricyclo[14.3.1.0^4,8]icosa-1(20),16,18-trien-10-yl]decanamide] had an IC50 of 5100 nM and an inhibition at 10 µM of 32%.
Compound `CN1CCC[C@H](NC(=O)CCCCCc2ccccc2)C(=O)N2C[C@@H](NC(=O)Cc3ccc4ccccc4c3)C[C@H]2COc2cccc(c2)C1=O` [Ex. 516, N-[(4S,6S,10S)-14-methyl-6-([2-(2-naphthyl)acetyl]amino}-9,15-dioxo-2-oxa-8,14-diazatricyclo[14.3.1.0^4,8]icosa-1(20),16,18-trien-10-yl]-6-phenylhexanamide] gave an IC50 of 590 nM and an inhibition at 10 µM of 97%.
As to `CN1CCC[C@H](NC(=O)CCCCOc2ccccc2)C(=O)N2C[C@@H](NC(=O)Cc3ccc4ccccc4c3)C[C@H]2COc2cccc(c2)C1=O` [Ex. 517, N-[(4S,6S,10S)-14-methyl-6-{[2-(2-naphthyl)acetyl]amino}-9,15-dioxo-2-oxa-8,14-diazatricyclo[14.3.1.0^4,8]icosa-1(20),16,18-trien-10-yl]-5-phenoxypentanamide], the IC50 worked out at 650 nM and testing at 10 µM gave an inhibition of 98%.
For `CCCCCC/C=C/CC(=O)N[C@H]1CCCN(C)C(=O)c2cccc(c2)OC[C@@H]2C[C@H](NC(=O)Cc3ccc4ccccc4c3)CN2C1=O` [Ex. 518, (E)-N-[(4S,6S,10S)-14-methyl-6-{[2-(2-naphthyl)acetyl]amino}-9,15-dioxo-2-oxa-8,14-diazatricyclo[14.3.1.0^4,8]icosa-1(20),16,18-trien-10-yl]-3-decenamide], the IC50 amounted to 490 nM and the inhibition at 10 µM worked out at 80%.
As to `CCCCCCCCCC(=O)N[C@H]1CCCN(C)C(=O)c2cccc(c2)OC[C@@H]2C[C@H](NC(=O)Cc3cccc4ccccc34)CN2C1=O` [Ex. 519, N-[(4S,6S,10S)-14-methyl-6-{[2-(1-naphthyl)acetyl]amino}-9,15-dioxo-2-oxa-8,14-diazatricyclo[14.3.1.0^4,8]icosa-1(20),16,18-trien-10-yl]decanamide], the IC50 came to 3000 nM.
On to `CN1CCC[C@H](NC(=O)CCCCCOCc2ccccc2)C(=O)N2C[C@@H](NC(=O)Cc3ccc4ccccc4c3)C[C@H]2COc2cccc(c2)C1=O` [Ex. 521, 6-(benzyloxy)-N-[(4S,6S,10S)-14-methyl-6-{[2-(2-naphthyl)acetyl]amino}-9,15-dioxo-2-oxa-8,14-diazatricyclo[14.3.1.0^4,8]icosa-1(20),16,18-trien-10-yl]hexanamide], for which the IC50 is 1000 nM and the inhibition at 10 µM turned out to be 81%.
The corresponding values for `CN1CCC[C@H](NC(=O)Cc2ccc(-c3ccccc3)cc2)C(=O)N2C[C@@H](NC(=O)Cc3ccc4ccccc4c3)C[C@H]2COc2cccc(c2)C1=O` [Ex. 522, 2-[1,1′-biphenyl]-4-yl-N-[(4S,6S,10S)-14-methyl-6-{[2-(2-naphthyl)acetyl]amino}-9,15-dioxo-2-oxa-8,14-diazatricyclo[14.3.1.0^4,8]icosa-1(20),16,18-trien-10-yl]acetamide] are 350 nM and 95%.
`CN1CCC[C@H](NC(=O)CC(c2ccccc2)c2ccccc2)C(=O)N2C[C@@H](NC(=O)Cc3ccc4ccccc4c3)C[C@H]2COc2cccc(c2)C1=O` [Ex. 523, N-[(4S,6S,10S)-14-methyl-6-{[2-(2-naphthyl)acetyl]amino}-9,15-dioxo-2-oxa-8,14-diazatricyclo[14.3.1.0^4,8]icosa-1(20),16,18-trien-10-yl]-3,3-diphenylpropanamide] yielded an IC50 of 860 nM and an inhibition at 10 µM of 92%.
For `CN1CCC[C@H](NC(=O)CCCCCc2ccccc2)C(=O)N2C[C@@H](NC(=O)CCCCCOCc3ccccc3)C[C@H]2COc2cccc(c2)C1=O` [Ex. 524, 6-(benzyloxy)-N-[(4S,6S,10S)-14-methyl-9,15-dioxo-10-[(6-phenylhexanoyl)amino]-2-oxa-8,14-diazatricyclo[14.3.1.0^4,8]icosa-1(20),16,18-trien-6-yl]hexanamide], the IC50 was found to be 1700 nM and 10 µM produced 85% inhibition.
`CN1CCC[C@H](NC(=O)Cc2ccc(-c3ccccc3)cc2)C(=O)N2C[C@@H](NC(=O)Nc3cccc(N(C)C)c3)C[C@H]2COc2cccc(c2)C1=O` [Ex. 526, 2-[1,1′-biphenyl]-4-yl-N-[(4S,6S,10S)-6-({[3-(dimethylamino)anilino]carbonyl}amino)-14-methyl-9,15-dioxo-2-oxa-8,14-diazatricyclo[14.3.1.0^4,8]icosa-1(20),16,18-trien-10-yl]acetamide]: the IC50 is 180 nM and the inhibition at 10 µM came to 99%.
Turning to `CN1CCC[C@H](NC(=O)Cc2ccc3ccccc3c2)C(=O)N2C[C@@H](NC(=O)Nc3cccc(F)c3)C[C@H]2COc2cccc(c2)C1=O` [Ex. 537, N-[(4S,6S,10S)-6-{[(3-fluoroanilino)carbonyl]amino}-14-methyl-9,15-dioxo-2-oxa-8,14-diazatricyclo[14.3.1.0^4,8]icosa-1(20),16,18-trien-10-yl]-2-(2-naphthyl)acetamide], the inhibition at 10 µM stood at 75%.
Consider `CN1CCC[C@H](NC(=O)Cc2ccc3ccccc3c2)C(=O)N2C[C@@H](NC(=O)Nc3ccc(N(C)C)cc3)C[C@H]2COc2cccc(c2)C1=O` [Ex. 538, N-[(4S,6S,10S)-6-({[4-(dimethylamino)anilino]carbonyl}amino)-14-methyl-9,15-dioxo-2-oxa-8,14-diazatricyclo[14.3.1.0^4,8]icosa-1(20),16,18-trien-10-yl]-2-(2-naphthyl)acetamide], for which the inhibition at 10 µM stood at 80%.
The compound `CN1CCC[C@H](NC(=O)Cc2ccc3ccccc3c2)C(=O)N2C[C@@H](NC(=O)Oc3ccccc3)C[C@H]2COc2cccc(c2)C1=O` [Ex. 539, phenyl N-[(4S,6S,10S)-14-methyl-10-{[2-(2-naphthyl)acetyl]amino}-9,15-dioxo-2-oxa-8,14-diazatricyclo[14.3.1.0^4,8]icosa-1(20),16,18-trien-6-yl]carbamate] came in with an inhibition at 10 µM of 59%.

Values taken from patent US9512139B2, “Conformationally constrained, fully synthetic macrocyclic compounds” (POLYPHOR AG, priority 2009, dated 2016).
